Where a name gives a salt, the structure may show the parent alone.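 Cells were grown in 96-well plates and exposed to each compound for 48 hours at five concentrations; endpoints were interpolated linearly between bracketing concentrations, or set to the highest concentration if not reached. GI50 is the concentration that inhibits growth by half.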 Activity calls are given as the source filed them. Cut-off read from the data, not from the text of the source: active = GI50 up to about 1.1 µM and inactive = higher.
Columns and labels:
Test in all cases: DTP human tumour cell line panel, 48 h
SF-295 = tested on: SF-295
A498 = tested on: A498
UACC-257 = tested on: UACC-257
MDA-MB-231 = tested on: MDA-MB-231
SK-OV-3 = tested on: SK-OV-3
BT-549 = tested on: BT-549
DU-145 = tested on: DU-145
NCI/ADR-RES = tested on: NCI/ADR-RES
HCT-15 = tested on: HCT-15
SK-MEL-5 = tested on: SK-MEL-5
CCRF-CEM = tested on: CCRF-CEM
COLO 205 = tested on: COLO 205
OVCAR-3 = tested on: OVCAR-3
NCI-H460 = tested on: NCI-H460
SNB-19 = tested on: SNB-19
SN12C = tested on: SN12C
HCC 2998 = tested on: HCC 2998
CAKI-1 = tested on: CAKI-1
SR = tested on: SR

| Compound | GI50 (SF-295) | GI50 (A498) | GI50 (UACC-257) | GI50 (MDA-MB-231) | GI50 (SK-OV-3) | GI50 (BT-549) | GI50 (DU-145) | GI50 (NCI/ADR-RES) | GI50 (HCT-15) [µM] | GI50 (SK-MEL-5) | GI50 (CCRF-CEM) | GI50 (COLO 205) | GI50 (OVCAR-3) | GI50 (NCI-H460) | GI50 (SNB-19) | GI50 (SN12C) | GI50 (HCC 2998) | GI50 (CAKI-1) | GI50 (SR) |
| --- | --- | --- | --- | --- | --- | --- | --- | --- | --- | --- | --- | --- | --- | --- | --- | --- | --- | --- | --- |
| CCOC(=O)c1nc2ccc(C(F)(F)F)cc2nc1Oc1cc(OC)cc(OC)c1 | 78.3 µM (inactive) | > 100 µM (inactive) | > 100 µM (inactive) | > 100 µM (inactive) | > 100 µM (inactive) | > 100 µM (inactive) | 87.3 µM (inactive) | > 100 µM (inactive) | > 100 | 29 µM (inactive) | > 100 µM (inactive) | > 100 µM (inactive) | > 100 µM (inactive) | 60.5 µM (inactive) | 68.9 µM (inactive) | > 100 µM (inactive) | – | – | – |
| O=C1Oc2ccccc2C(=O)/C1=C/N1C(=O)N/C(=C\c2cccc(O)c2)C1=O | 67.3 µM (inactive) | – | > 100 µM (inactive) | 62.4 µM (inactive) | > 100 µM (inactive) | 21.8 µM (inactive) | 72.9 µM (inactive) | > 100 µM (inactive) | 61.9 | 70.8 µM (inactive) | – | > 100 µM (inactive) | > 100 µM (inactive) | 59 µM (inactive) | 45.3 µM (inactive) | 69.5 µM (inactive) | 55.7 µM (inactive) | 41 µM (inactive) | – |
| CCOC(=O)NC(=O)c1cn(-c2ccc(CCOC(=O)CCCCCCCCC(=O)OCCc3ccc(-n4cc(C(=O)NC(=O)OCC)c(=O)[nH]c4=O)cc3)cc2)c(=O)[nH]c1=O | > 100 µM (inactive) | – | > 100 µM (inactive) | – | > 100 µM (inactive) | – | – | – | > 100 | > 100 µM (inactive) | > 100 µM (inactive) | > 100 µM (inactive) | > 100 µM (inactive) | > 100 µM (inactive) | 59 µM (inactive) | > 100 µM (inactive) | > 100 µM (inactive) | – | > 100 µM (inactive) |
| N#Cc1nc(Cc2ccccc2)oc1N | > 100 µM (inactive) | – | > 100 µM (inactive) | > 100 µM (inactive) | > 100 µM (inactive) | > 100 µM (inactive) | > 100 µM (inactive) | – | > 100 | > 100 µM (inactive) | 44.3 µM (inactive) | > 100 µM (inactive) | > 100 µM (inactive) | > 100 µM (inactive) | 38.7 µM (inactive) | > 100 µM (inactive) | – | > 100 µM (inactive) | > 100 µM (inactive) |
| CC1(C)C2CC(=O)C1(C)C(O)C2Br (configuration not stated) | > 100 µM (inactive) | > 100 µM (inactive) | – | > 100 µM (inactive) | > 100 µM (inactive) | > 100 µM (inactive) | > 100 µM (inactive) | > 100 µM (inactive) | > 100 | > 100 µM (inactive) | > 100 µM (inactive) | – | > 100 µM (inactive) | > 100 µM (inactive) | > 100 µM (inactive) | > 100 µM (inactive) | > 100 µM (inactive) | – | – |
| CCC1C(=O)C(O)[C@H]2[C@@H]3C(O)CC4=CC(=O)CC[C@]4(C)[C@H]3CC[C@]12C (some centres not stated) | > 50 µM (inactive) | > 50 µM (inactive) | > 50 µM (inactive) | > 50 µM (inactive) | > 50 µM (inactive) | – | > 50 µM (inactive) | > 50 µM (inactive) | > 50 | > 50 µM (inactive) | > 50 µM (inactive) | > 50 µM (inactive) | > 50 µM (inactive) | > 50 µM (inactive) | > 50 µM (inactive) | > 50 µM (inactive) | > 50 µM (inactive) | > 50 µM (inactive) | > 50 µM (inactive) |
| C(=N\Cc1ccccc1)/c1ccccc1-c1ccccc1/C=N/Cc1ccccc1 | > 10 µM (inactive) | > 10 µM (inactive) | 2.7 µM (inactive) | > 10 µM (inactive) | > 10 µM (inactive) | – | > 10 µM (inactive) | > 10 µM (inactive) | 5.47 | > 7.03 µM (inactive) | 2.65 µM (inactive) | > 10 µM (inactive) | 4.6 µM (inactive) | > 8.34 µM (inactive) | > 10 µM (inactive) | > 10 µM (inactive) | – | > 10 µM (inactive) | 3.26 µM (inactive) |
| CCOC(=O)C(=O)/C(=C\NC(=S)Nc1ccccc1Cl)C(=O)OCC | > 100 µM (inactive) | > 100 µM (inactive) | > 100 µM (inactive) | > 100 µM (inactive) | > 100 µM (inactive) | – | > 100 µM (inactive) | > 100 µM (inactive) | > 100 | > 100 µM (inactive) | > 100 µM (inactive) | > 100 µM (inactive) | > 100 µM (inactive) | > 100 µM (inactive) | > 100 µM (inactive) | > 100 µM (inactive) | > 100 µM (inactive) | > 100 µM (inactive) | > 100 µM (inactive) |
| CC(C)(C)c1ccc2c(c1)C#Cc1cc(C(C)(C)C)ccc1OCCCO2 | > 100 µM (inactive) | > 100 µM (inactive) | > 100 µM (inactive) | > 100 µM (inactive) | – | > 100 µM (inactive) | > 100 µM (inactive) | > 100 µM (inactive) | > 100 | > 100 µM (inactive) | > 100 µM (inactive) | > 100 µM (inactive) | > 100 µM (inactive) | > 100 µM (inactive) | > 100 µM (inactive) | > 100 µM (inactive) | – | > 100 µM (inactive) | – |
| CC[C@@]1(C[C@H]2C[C@@]3(C(=O)OC)c4[nH]c5ccccc5c4CCN3C2=S)COC2(CCCCC2)O1 | 22 µM (inactive) | 88.7 µM (inactive) | 26.5 µM (inactive) | – | > 100 µM (inactive) | 4.72 µM (inactive) | > 100 µM (inactive) | 57 µM (inactive) | 5.57 | 3.12 µM (inactive) | 7.23 µM (inactive) | 7.41 µM (inactive) | 55.7 µM (inactive) | 5.78 µM (inactive) | 38.5 µM (inactive) | > 100 µM (inactive) | 15.2 µM (inactive) | > 100 µM (inactive) | 4.44 µM (inactive) |
| Cc1ccc(C)c(NC(=O)C(=O)C2C(=O)C3=C(CC2(C)C)Nc2ccccc2S3)c1 (configuration not stated) | 58.9 µM (inactive) | – | > 100 µM (inactive) | 97.1 µM (inactive) | 60.4 µM (inactive) | > 100 µM (inactive) | 93.5 µM (inactive) | 65.2 µM (inactive) | > 100 | 79.8 µM (inactive) | 70.6 µM (inactive) | > 100 µM (inactive) | 55.6 µM (inactive) | > 100 µM (inactive) | > 100 µM (inactive) | > 100 µM (inactive) | > 100 µM (inactive) | > 100 µM (inactive) | – |
| CCOC(=O)Cc1csc(N/C=C2/C(=O)Oc3ccccc3C2=O)n1 | 20.9 µM (inactive) | – | 20.8 µM (inactive) | – | 35.4 µM (inactive) | – | – | 17.7 µM (inactive) | 24.2 | 17.3 µM (inactive) | 26.6 µM (inactive) | 44.7 µM (inactive) | 25.9 µM (inactive) | 45.4 µM (inactive) | 24.2 µM (inactive) | – | – | 26.2 µM (inactive) | 14.3 µM (inactive) |
| COC[C@@H](C[C@H]1O[C@@](O)([C@H](O)[C@@H]2C[C@H](OC)[C@@H](O)CC/C=C(C)/C=C/[C@@H](O[C@@H]3O[C@@H](C)[C@H](OC)[C@@H](O)[C@@H]3O)[C@H](C)/C=C(C)/C=C(C)/C=C(\C)C(=O)O2)[C@H](C)[C@@H](O)[C@H]1C)O[C@H]1C[C@](C)(O)[C@@H](O[C@H]2C[C@@H](OC)[C@H](O)[C@@H](C)O2)C(C)O1 (some centres not stated) | 0.857 µM (active) | – | 0.0374 µM (active) | > 100 µM (inactive) | > 100 µM (inactive) | > 92.3 µM (inactive) | > 61.8 µM (inactive) | > 100 µM (inactive) | > 100 | 0.182 µM (active) | – | 0.221 µM (active) | 63.1 µM (inactive) | > 61 µM (inactive) | – | > 100 µM (inactive) | > 80.2 µM (inactive) | > 100 µM (inactive) | – |
| O=C1C(c2ccc(Cl)cc2)=[N+]([O-])c2ccccc21 | 12.1 µM (inactive) | 24.7 µM (inactive) | 16 µM (inactive) | – | > 100 µM (inactive) | – | – | – | 11.4 | 13.6 µM (inactive) | 4.36 µM (inactive) | 17.7 µM (inactive) | 13.6 µM (inactive) | 18.8 µM (inactive) | 23.3 µM (inactive) | 18.1 µM (inactive) | > 100 µM (inactive) | – | 20.2 µM (inactive) |
| CC1=C(CO)C2=C(C)C3(CC3)[C@@](C)(O)C(=O)C2=C1 [IROFULVEN] | 0.302 µM (active) | 0.179 µM (active) | 0.227 µM (active) | 0.303 µM (active) | 0.248 µM (active) | – | 0.0929 µM (active) | 0.241 µM (active) | 0.29 | 0.161 µM (active) | 1.82 µM (inactive) | 0.166 µM (active) | 0.26 µM (active) | 0.0467 µM (active) | 0.348 µM (active) | 0.409 µM (active) | 0.153 µM (active) | 0.265 µM (active) | 0.792 µM (active) |
| NCCCNCCCCNCCCN [SPERMINE TETRAHYDROCHLORIDE] | > 100 µM (inactive) | > 100 µM (inactive) | > 71.1 µM (inactive) | > 43.6 µM (inactive) | > 38.7 µM (inactive) | – | 10.6 µM (inactive) | 44.6 µM (inactive) | 2.67 | > 57.9 µM (inactive) | 3.67 µM (inactive) | 4.67 µM (inactive) | – | > 100 µM (inactive) | > 100 µM (inactive) | 4.41 µM (inactive) | > 48.5 µM (inactive) | 5.97 µM (inactive) | 3.74 µM (inactive) |
